Assay results as given in the supplement of paper PMC5662764.
± gives the standard deviation of the averaged measurements.

Columns and labels:
Assay in all cases: normalised growth rate inhibition (GR value) relative to DMSO control (GR (1 = untreated growth, 0 = cytostasis, <0 = cytotoxic)); higher = less growth inhibition
Settings in all cases: 72 h
MCF10A = test system: MCF10A
Experimental: (§1)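 Breast cancer cell lines (BT-20, Hs 578T, MCF 10A, MCF7, MDA-MB-231, SK-BR-3) were plated in 384-well plates and treated 24 h later with drugs at six concentrations (0.04-10 µM). Viable cells were counted by Hoechst/dead-cell-stain imaging at 0 and 72 h. Counts were normalised to DMSO controls on the same plate to give the relative cell count and the growth-rate inhibition (GR) value; technical plate triplicates were averaged for each biological replicate.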

MCF7 = test system: MCF7
Experimental: as §1

BT20 = test system: BT20
Experimental: as §1

MDAMB231 = test system: MDAMB231
Experimental: as §1

SKBR3 = test system: SKBR3
Experimental: as §1

HS578T = test system: HS578T
Experimental: as §1

Structure (SMILES)	normalised growth rate inhibition (MCF10A; 0.04 µM)	normalised growth rate inhibition (MCF10A; 0.12 µM)	normalised growth rate inhibition (MCF10A; 0.37 µM)	normalised growth rate inhibition (MCF10A; 1.11 µM)	normalised growth rate inhibition (MCF10A; 3.33 µM)	normalised growth rate inhibition (MCF10A; 10 µM)	normalised growth rate inhibition (MCF7; 0.04 µM)	normalised growth rate inhibition (MCF7; 0.12 µM)	normalised growth rate inhibition (MCF7; 0.37 µM)	normalised growth rate inhibition (MCF7; 1.11 µM)	normalised growth rate inhibition (MCF7; 3.33 µM)	normalised growth rate inhibition (MCF7; 10 µM)	normalised growth rate inhibition (BT20; 0.04 µM)	normalised growth rate inhibition (BT20; 0.12 µM)	normalised growth rate inhibition (BT20; 0.37 µM)	normalised growth rate inhibition (BT20; 1.11 µM)	normalised growth rate inhibition (BT20; 3.33 µM)	normalised growth rate inhibition (BT20; 10 µM)	normalised growth rate inhibition (MDAMB231; 0.04 µM)	normalised growth rate inhibition (MDAMB231; 0.12 µM)	normalised growth rate inhibition (MDAMB231; 0.37 µM)	normalised growth rate inhibition (MDAMB231; 1.11 µM)	normalised growth rate inhibition (MDAMB231; 3.33 µM)	normalised growth rate inhibition (MDAMB231; 10 µM)	normalised growth rate inhibition (SKBR3; 0.04 µM)	normalised growth rate inhibition (SKBR3; 0.12 µM)	normalised growth rate inhibition (SKBR3; 0.37 µM)	normalised growth rate inhibition (SKBR3; 1.11 µM)	normalised growth rate inhibition (SKBR3; 3.33 µM)	normalised growth rate inhibition (SKBR3; 10 µM)	normalised growth rate inhibition (HS578T; 0.04 µM)	normalised growth rate inhibition (HS578T; 0.12 µM)	normalised growth rate inhibition (HS578T; 0.37 µM)	normalised growth rate inhibition (HS578T; 1.11 µM)	normalised growth rate inhibition (HS578T; 3.33 µM)	normalised growth rate inhibition (HS578T; 10 µM)
C[C@@H](Oc1cc(-c2cnn(C3CCNCC3)c2)cnc1N)c1c(Cl)ccc(F)c1Cl [crizotinib]	0.988 ± 0.021	0.964 ± 0.032	0.934 ± 0.022	0.906 ± 0.015	0.833 ± 0.028	0.094 ± 0.017	0.762 ± 0.07	0.748 ± 0.078	0.618 ± 0.12	0.351 ± 0.17	0.0468 ± 0.047	-0.174 ± 0.065	0.805 ± 0.04	0.91 ± 0.024	0.823 ± 0.015	0.742 ± 0.03	0.391 ± 0.17	-0.0468 ± 0.072	0.831 ± 0.13	0.885 ± 0.079	0.778 ± 0.096	0.509 ± 0.2	0.175 ± 0.12	-0.0131 ± 0.13	0.687 ± 0.14	0.808 ± 0.096	0.753 ± 0.15	0.629 ± 0.15	0.342 ± 0.14	-0.181 ± 0.092	0.976 ± 0.034	0.965 ± 0.042	0.903 ± 0.014	0.781 ± 0.12	0.367 ± 0.2	0.0436 ± 0.099
Cc1nc(Nc2ncc(C(=O)Nc3c(C)cccc3Cl)s2)cc(N2CCN(CCO)CC2)n1 [dasatinib]	0.621 ± 0.24	0.391 ± 0.23	0.196 ± 0.14	0.0869 ± 0.091	-0.0296 ± 0.08	-0.138 ± 0.061	0.342 ± 0.32	0.0795 ± 0.2	-0.0261 ± 0.17	-0.0357 ± 0.15	-0.0394 ± 0.16	-0.0825 ± 0.16	0.622 ± 0.27	0.364 ± 0.2	0.0964 ± 0.081	0.0125 ± 0.077	-0.085 ± 0.094	-0.163 ± 0.1	0.159 ± 0.29	-0.107 ± 0.1	-0.204 ± 0.032	-0.233 ± 0.054	-0.239 ± 0.061	-0.259 ± 0.12	0.998 ± 0.06	0.937 ± 0.08	0.942 ± 0.058	0.766 ± 0.064	0.398 ± 0.15	-0.166 ± 0.22	0.394 ± 0.28	0.17 ± 0.22	0.0194 ± 0.17	-0.0213 ± 0.16	-0.0565 ± 0.17	-0.109 ± 0.15
CN1CCN(c2ccc3nc(-c4c(N)c5c(F)cccc5[nH]c4=O)[nH]c3c2)CC1 [dovitinib]	0.962 ± 0.032	0.893 ± 0.046	0.599 ± 0.098	0.368 ± 0.18	0.146 ± 0.085	0.0253 ± 0.033	0.898 ± 0.047	0.862 ± 0.079	0.678 ± 0.14	0.554 ± 0.19	0.379 ± 0.17	0.304 ± 0.1	0.83 ± 0.047	0.685 ± 0.11	0.394 ± 0.13	0.304 ± 0.072	0.219 ± 0.034	0.156 ± 0.12	0.903 ± 0.11	0.817 ± 0.14	0.534 ± 0.1	0.451 ± 0.12	0.343 ± 0.068	0.23 ± 0.099	0.711 ± 0.12	0.659 ± 0.066	0.497 ± 0.062	0.474 ± 0.081	0.275 ± 0.04	0.142 ± 0.045	0.791 ± 0.047	0.562 ± 0.035	0.3 ± 0.083	0.271 ± 0.097	0.283 ± 0.079	0.254 ± 0.16
Cn1cc(C2=C(c3cn(C4CCN(Cc5ccccn5)CC4)c4ccccc34)C(=O)NC2=O)c2ccccc21 [enzastaurin]	1.006 ± 0.0093	1 ± 0.014	1 ± 0.018	1.02 ± 0.03	1.01 ± 0.061	0.985 ± 0.11	0.978 ± 0.052	0.999 ± 0.035	1.01 ± 0.035	0.946 ± 0.039	0.936 ± 0.084	0.693 ± 0.31	1.01 ± 0.1	1.03 ± 0.057	1.07 ± 0.043	1.07 ± 0.079	1.13 ± 0.057	1.19 ± 0.062	1 ± 0.023	1.01 ± 0.035	1 ± 0.048	1 ± 0.071	1.01 ± 0.036	1.03 ± 0.079	1.1 ± 0.097	1.07 ± 0.085	1.1 ± 0.033	1.06 ± 0.033	1.07 ± 0.056	0.958 ± 0.18	1.02 ± 0.027	0.998 ± 0.018	1 ± 0.028	1.02 ± 0.027	1.01 ± 0.019	0.935 ± 0.035
C#Cc1cccc(Nc2ncnc3cc(OCCOC)c(OCCOC)cc23)c1 [erlotinib]	0.973 ± 0.013	0.829 ± 0.14	0.432 ± 0.17	0.107 ± 0.053	0.132 ± 0.065	0.136 ± 0.036	0.858 ± 0.069	0.899 ± 0.074	1.02 ± 0.024	1.06 ± 0.047	1.04 ± 0.04	0.927 ± 0.074	0.861 ± 0.025	0.879 ± 0.049	0.902 ± 0.068	0.834 ± 0.032	0.856 ± 0.049	0.547 ± 0.057	0.9 ± 0.058	0.937 ± 0.032	0.953 ± 0.035	0.962 ± 0.036	0.969 ± 0.016	0.641 ± 0.069	0.756 ± 0.077	0.885 ± 0.06	0.946 ± 0.085	0.911 ± 0.072	0.868 ± 0.08	0.165 ± 0.12	0.973 ± 0.015	0.965 ± 0.023	0.957 ± 0.012	0.945 ± 0.019	0.918 ± 0.016	0.586 ± 0.073
COc1cc2c(Oc3ccc(NC(=O)C4(C(=O)Nc5ccc(F)cc5)CC4)cc3F)ccnc2cc1OCCCN1CCOCC1 [foretinib]	1.03 ± 0.031	0.992 ± 0.028	0.902 ± 0.034	0.429 ± 0.1	0.154 ± 0.043	-0.0329 ± 0.028	1.01 ± 0.025	0.495 ± 0.2	0.134 ± 0.019	0.0492 ± 0.039	0.00497 ± 0.016	-0.225 ± 0.025	1.02 ± 0.046	0.799 ± 0.15	0.236 ± 0.22	-0.00958 ± 0.12	-0.0192 ± 0.12	-0.124 ± 0.12	0.91 ± 0.037	0.615 ± 0.012	0.168 ± 0.12	0.113 ± 0.12	0.0741 ± 0.17	-0.211 ± 0.056	1.07 ± 0.037	0.812 ± 0.26	0.0769 ± 0.069	-0.0562 ± 0.079	-0.034 ± 0.083	-0.0967 ± 0.11	0.936 ± 0.045	0.845 ± 0.011	0.381 ± 0.15	0.256 ± 0.14	0.178 ± 0.14	-0.223 ± 0.12
COc1cc2ncnc(Nc3ccc(F)c(Cl)c3)c2cc1OCCCN1CCOCC1 [gefitinib]	0.887 ± 0.052	0.59 ± 0.11	0.265 ± 0.088	0.122 ± 0.01	0.121 ± 0.024	0.105 ± 0.022	1.09 ± 0.064	1.06 ± 0.069	1.05 ± 0.083	1.04 ± 0.092	1.03 ± 0.069	0.808 ± 0.04	1.04 ± 0.075	0.968 ± 0.11	0.94 ± 0.051	0.909 ± 0.075	0.878 ± 0.05	0.762 ± 0.11	1.07 ± 0.063	1.03 ± 0.068	1.019 ± 0.0099	1.02 ± 0.038	1.01 ± 0.069	0.897 ± 0.021	0.909 ± 0.055	0.74 ± 0.063	0.567 ± 0.076	0.418 ± 0.099	0.342 ± 0.12	0.048 ± 0.14	0.999 ± 0.0098	0.9844 ± 0.0036	0.984 ± 0.015	0.986 ± 0.014	0.987 ± 0.0035	0.849 ± 0.015
